Measured values taken from patent publication US10206937B2, “Boronic acid derivatives and therapeutic uses thereof” (Qpex Biopharma, Inc., priority 2014, dated 2019).
pIC50, pKi: −log10 of the molar value.

Key:
[1] = molecular target: T1, NDM-1 (Klebsiella pneumoniae, UniProt C7C422); test: biochemical
[2] = molecular target: T1, NDM-1; test: Inhibition of purified class B carbapenemase NDM-1 (Ki, imipenem substrate); type: biochemical; conditions: NDM-1, substrate imipenem; read-out: Ki NDM-1, Imipenem
[3] = molecular target: T2, VIM-1 (Pseudomonas aeruginosa, UniProt A0A0F7KYQ8); test: biochemical; conditions: cleavage of nitrocefin (200 uM) by VIM-1 supernatant
T2 construct: made in house; host or cells: ECM6711 strain carrying pUCP24-VIM-1 plasmid; culture supernatant used unpurified

[4] = molecular target: T3, purified class A, C and D enzymes (UniProt Q9F663); type: biochemical; conditions: read-out: Ki (KPC-2, NCF); purified KPC-2; nitrocefin reporter substrate
T3 construct: rows headed: Ki (KPC-2, NCF); other: purified KPC-2; nitrocefin reporter substrate

[5] = molecular target: T4, purified class A, C and D enzymes (UniProt Q6XEC0); type: biochemical; conditions: read-out: Ki (OXA-48, NCF); purified OXA-48; nitrocefin reporter substrate
T4 construct: rows headed: Ki (OXA-48, NCF); other: purified OXA-48; nitrocefin reporter substrate

[6] = molecular target: T5, purified class A, C and D enzymes (UniProt P0AD64, L31Q/G234S/E235K, species not given); type: biochemical; conditions: read-out: Ki (SHV-12, NCF); purified SHV-12; nitrocefin reporter substrate
T5 construct: Ki (SHV-12, NCF); other: purified SHV-12; nitrocefin reporter substrate
T5 sequence (P0AD64 1-286 L31Q/G234S/E235K): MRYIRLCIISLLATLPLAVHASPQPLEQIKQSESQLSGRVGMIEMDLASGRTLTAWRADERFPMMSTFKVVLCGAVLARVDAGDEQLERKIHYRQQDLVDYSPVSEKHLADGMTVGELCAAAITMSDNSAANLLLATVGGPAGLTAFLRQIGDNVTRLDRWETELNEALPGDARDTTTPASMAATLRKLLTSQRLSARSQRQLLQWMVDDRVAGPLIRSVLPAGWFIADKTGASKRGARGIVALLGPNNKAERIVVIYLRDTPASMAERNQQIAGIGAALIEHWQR

[7] = molecular target: purified class A, C and D enzymes (Enterobacter cloacae, UniProt P05364); type: biochemical; conditions: purified P99/AmpC of ECL; nitrocefin reporter substrate
Chain of purified class A, C and D enzymes (Enterobacter cloacae, UniProt P05364) (P05364 21-381): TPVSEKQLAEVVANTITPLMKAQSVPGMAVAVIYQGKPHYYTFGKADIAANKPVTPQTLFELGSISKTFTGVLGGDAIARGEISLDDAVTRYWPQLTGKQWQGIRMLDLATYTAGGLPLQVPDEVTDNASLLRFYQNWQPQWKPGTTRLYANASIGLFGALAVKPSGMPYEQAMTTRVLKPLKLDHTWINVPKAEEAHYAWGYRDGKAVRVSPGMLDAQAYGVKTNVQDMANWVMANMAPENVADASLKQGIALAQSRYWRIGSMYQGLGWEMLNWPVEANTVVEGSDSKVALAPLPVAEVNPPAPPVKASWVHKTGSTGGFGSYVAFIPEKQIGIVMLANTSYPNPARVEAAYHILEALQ

[8] = molecular target: purified class A, C and D enzymes (Escherichia coli, UniProt Q9L5C7); type: biochemical; conditions: purified CTX-M-14; nitrocefin reporter substrate
Chain of purified class A, C and D enzymes (Escherichia coli, UniProt Q9L5C7) (Q9L5C7 entry or part of it): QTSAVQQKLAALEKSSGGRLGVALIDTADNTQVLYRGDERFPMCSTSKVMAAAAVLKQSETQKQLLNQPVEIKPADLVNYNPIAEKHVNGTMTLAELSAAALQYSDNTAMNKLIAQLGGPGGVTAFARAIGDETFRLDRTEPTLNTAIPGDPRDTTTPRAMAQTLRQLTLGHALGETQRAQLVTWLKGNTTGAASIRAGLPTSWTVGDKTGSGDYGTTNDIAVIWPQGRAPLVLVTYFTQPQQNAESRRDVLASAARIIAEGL

[9] = cleavage of imipenem (100 uM) by NDM-1, read-out: Ki, Imipenem

T1 sequence (C7C422 29-270, looked up, species assumed): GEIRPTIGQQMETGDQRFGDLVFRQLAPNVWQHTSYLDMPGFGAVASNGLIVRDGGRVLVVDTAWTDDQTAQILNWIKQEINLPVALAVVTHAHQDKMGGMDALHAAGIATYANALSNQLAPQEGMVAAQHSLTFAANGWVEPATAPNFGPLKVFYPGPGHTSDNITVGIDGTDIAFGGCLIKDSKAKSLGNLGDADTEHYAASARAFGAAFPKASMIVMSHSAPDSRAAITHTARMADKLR

SMILES	pKi [1, 9]	pKi [2]	pIC50 [3]	pKi [4]	pKi ([1]; cleavage of biapenem (100 uM) by NDM-1, read-out: Ki, Biapenem)	pKi ([1]; cleavage of meropenem (100 uM) by NDM-1, read-out: Ki, Meropenem)	pKi [5]	pKi [6]	Ki (P99/AmpC of ECL, NCF) [7]	Ki (CTX-M-14, NCF) [8]
Cn1nnnc1S[C@H]1Cc2cccc(C(=O)O)c2OB1O [Compound 5, (R)-2-hydroxy-3-(1-methyl-1H-tetrazol-5-ylthio)-3,4-dihydro-2H-benzo[e][1,2]oxaborinine-8-carboxylic acid]	7.00 to 8.00	7.00 to 8.00	≤ 6.00	–	–	–	–	–	–	–
O=C(O)c1cccc2c1OB(O)[C@@H](Sc1ccccc1)C2 [Compound 6, (R)-2-hydroxy-3-(phenylthio)-3,4-dihydro-2H-benzo[e][1,2]oxaborinine-8-carboxylic acid]	> 8.00	> 8.00	> 6.00	–	–	–	–	–	–	–
O=C(O)c1cccc2c1OB(O)[C@@H](Sc1cccnc1)C2 [Compound 8, (R)-2-hydroxy-3-(pyridin-3-ylthio)-3,4-dihydro-2H-benzo[e][1,2]oxaborinine-8-carboxylic acid]	< 7.00	< 7.00	> 6.00	–	–	–	–	–	–	–
CC(=N)S[C@H]1Cc2cccc(C(=O)O)c2OB1O [Compound 10, (R)-2-hydroxy-3-(1-iminoethylthio)-3,4-dihydro-2H-benzo[e][1,2]oxaborinine-8-carboxylic acid]	7.00 to 8.00	7.00 to 8.00	≤ 6.00	6.00 to 7.00	–	–	–	–	–	–
O=C(O)c1cccc2c1OB(O)[C@@H](Sc1c[nH]nn1)C2 [Compound 12, (R)-3-(1H-1,2,3-triazol-4-ylthio)-2-hydroxy-3,4-dihydro-2H-benzo[e][1,2]oxaborinine-8-carboxylic acid]	7.00 to 8.00	7.00 to 8.00	> 6.00	6.00 to 7.00	–	–	–	–	–	–
O=C(O)c1cccc2c1OB(O)[C@@H](OCc1ccccc1)C2 [Compound 13, (R)-3-(benzyloxy)-2-hydroxy-3,4-dihydro-2H-benzo[e][1,2]oxaborinine-8-carboxylic acid]	7.00 to 8.00	7.00 to 8.00	> 6.00	–	–	–	–	–	–	–
CO[C@H]1Cc2cccc(C(=O)O)c2OB1O [Compound 17, (R)-2-hydroxy-3-methoxy-3,4-dihydro-2H-benzo[e][1,2]oxaborinine-8-carboxylic acid]	7.00 to 8.00	7.00 to 8.00	> 6.00	> 7.00	7.00 to 8.00	7.00 to 8.00	> 7.00	> 7.00	–	–
CO[C@H]1Cc2ccc(F)c(C(=O)O)c2OB1O [Compound 19, (R)-7-fluoro-2-hydroxy-3-methoxy-3,4-dihydro-2H-benzo[e][1,2]oxaborinine-8-carboxylic acid]	> 8.00	–	> 6.00	> 7.00	–	–	> 7.00	> 7.00	–	–
Nn1cnnc1S[C@H]1Cc2ccc(F)c(C(=O)O)c2OB1O [Compound 20, (R)-3-(4-amino-4H-1,2,4-triazol-3-ylthio)-7-fluoro-2-hydroxy-3,4-dihydro-2H-benzo[e][1,2]oxaborinine-8-carboxylic acid]	> 8.00	> 8.00	≤ 6.00	6.00 to 7.00	–	–	6.00 to 7.00	> 7.00	–	–
Cn1cnnc1S[C@H]1Cc2ccc(F)c(C(=O)O)c2OB1O [Compound 24, (R)-7-fluoro-2-hydroxy-3-(4-methyl-4H-1,2,4-triazol-3-ylthio)-3,4-dihydro-2H-benzo[e][1,2]oxaborinine-8-carboxylic acid]	7.00 to 8.00	7.00 to 8.00	≤ 6.00	6.00 to 7.00	–	–	> 7.00	> 7.00	–	–
CSc1ccc2c(c1C(=O)O)OB(O)[C@@H](Sc1nncn1N)C2 [Compound 25, (R)-3-(4-amino-4H-1,2,4-triazol-3-ylthio)-2-hydroxy-7-(methylthio)-3,4-dihydro-2H-benzo[e][1,2]oxaborinine-8-carboxylic acid]	> 8.00	> 8.00	> 6.00	6.00 to 7.00	–	–	> 7.00	> 7.00	–	–
COc1ccc2c(c1C(=O)O)OB(O)[C@@H](Sc1nncn1N)C2 [Compound 26, (R)-3-(4-amino-4H-1,2,4-triazol-3-ylthio)-2-hydroxy-7-methoxy-3,4-dihydro-2H-benzo[e][1,2]oxaborinine-8-carboxylic acid]	> 8.00	> 8.00	> 6.00	6.00 to 7.00	–	–	> 7.00	> 7.00	Y (0.1 μM to 1 μM)	X (Less than 0.1 μM)
COc1ccc2c(c1C(=O)O)OB(O)[C@@H](Sc1nncn1C)C2 [Compound 28, (R)-2-hydroxy-7-methoxy-3-(4-methyl-4H-1,2,4-triazol-3-ylthio)-3,4-dihydro-2H-benzo[e][1,2]oxaborinine-8-carboxylic acid]	> 8.00	> 8.00	> 6.00	6.00 to 7.00	–	–	> 7.00	> 7.00	Y (0.1 μM to 1 μM)	X (Less than 0.1 μM)
COc1ccc2c(c1C(=O)O)OB(O)[C@@H](SC1CN(S(N)(=O)=O)C1)C2 [Compound 76, (3R)-2-hydroxy-7-methoxy-3-(1-sulfamoylazetidin-3-yl)sulfanyl-3,4-dihydro-1,2-benzoxaborinine-8-carboxylic acid]	< 7.00	< 7.00	≤ 6.00	6.00 to 7.00	–	–	> 7.00	–	Y (0.1 μM to 1 μM)	X (Less than 0.1 μM)
O=C(O)c1c(OCC2CC2)ccc2c1OB(O)[C@@H](Sc1nncs1)C2 [Compound 92, (3R)-7-(cyclopropylmethoxy)-2-hydroxy-3-(1,3,4-thiadiazol-2-ylsulfanyl)-3,4-dihydro-1,2-benzoxaborinine-8-carboxylic acid]	7.00 to 8.00	7.00 to 8.00	> 6.00	6.00 to 7.00	–	–	> 7.00	–	Y (0.1 μM to 1 μM)	X (Less than 0.1 μM)
O=C(O)c1c(OCc2nncs2)ccc2c1OB(O)[C@@H](Sc1nncs1)C2 [Compound 93]	< 7.00	< 7.00	> 6.00	6.00 to 7.00	–	–	> 7.00	–	Y (0.1 μM to 1 μM)	X (Less than 0.1 μM)
O=C(O)c1c(OC(F)F)ccc2c1OB(O)[C@@H](Sc1nncs1)C2 [Compound 94, (3R)-7-(difluoromethoxy)-2-hydroxy-3-(1,3,4-thiadiazol-2-ylsulfanyl)-3,4-dihydro-1,2-benzoxaborinine-8-carboxylic acid]	< 7.00	< 7.00	> 6.00	6.00 to 7.00	–	–	> 7.00	–	Z (Greater than 1 μM)	X (Less than 0.1 μM)
CSCCOc1ccc2c(c1C(=O)O)OB(O)[C@@H](Sc1nncs1)C2 [Compound 95, (3R)-2-hydroxy-7-(2-methylsulfanylethoxy)-3-(1,3,4-thiadiazol-2-ylsulfanyl)-3,4-dihydro-1,2-benzoxaborinine-8-carboxylic acid]	7.00 to 8.00	7.00 to 8.00	> 6.00	6.00 to 7.00	–	–	> 7.00	–	Y (0.1 μM to 1 μM)	X (Less than 0.1 μM)
COc1ccc2c(c1C(=O)O)OB(O)[C@@H](Sc1nnc(NC(=N)N)s1)C2 [Compound 106, (3R)-3-[(5-guanidino-1,3,4-thiadiazol-2-yl)sulfanyl]-2-hydroxy-7-methoxy-3,4-dihydro-1,2-benzoxaborinine-8-carboxylic acid]	< 7.00	< 7.00	> 6.00	6.00 to 7.00	–	–	> 7.00	–	X (Less than 0.1 μM)	X (Less than 0.1 μM)
CS(=O)(=O)Nc1ccc2c(c1C(=O)O)OB(O)[C@@H](Sc1nnc(N)s1)C2 [Compound 120, (3R)-3-[(5-amino-1,3,4-thiadiazol-2-yl)sulfanyl]-2-hydroxy-7-(methanesulfonamido)-3,4-dihydro-1,2-benzoxaborinine-8-carboxylic acid]	> 8.00	> 8.00	> 6.00	6.00 to 7.00	–	–	> 7.00	–	X (Less than 0.1 μM)	X (Less than 0.1 μM)
